{"source": "the supplement of paper PMC11208160"}
{"assay": "recombinant UMI read abundance after kanamycin selection (control-corrected) (log10(CPM+1)); higher = more efficient recombination; extreme values may be limits of the assay; sequences stand for … in AGTGCAGAGAAAATCGGCCAGTTTTCTCTGCCTGCAGTCCGCATGCCGTGGGACCCCTTGGGTTCTAACCTGTTGCCTAGATTTATGCAGCGGACTGCCTTTCTCCCAAAGTGATAAACCGG…AGGTTGGTTTCACT; site = the 11-nt donor", "in_short": "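Two replicates each of selected and unselected plating were used in this pooled Escherichia coli screen of donor and donor-binding-loop pairs for the IS621 bridge recombinase. Selection was with IPTG (0.07 mM) and kanamycin. Counts of recombinant UMIs, amplified across the donor–target junction, were converted to CPM, averaged, scaled by control-derived factors and reported as log10(CPM+1).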"}
{"sequence": "TCCTACTCATGGACCGGTTTTCCCGGTAATCCGTATTTGCA (site TCGTACTCTTG)", "recombinant UMI read abundance (log10)": 0}
{"sequence": "TCCTACTCATGGACCGGTTTTCCCGGTAATCCGTATTTGCA (site TCTTACTCTTG)", "recombinant UMI read abundance (log10)": 0}
{"sequence": "TCCTAGGCATGGACCGGTTTTCCCGGTAATCCGTATTTGGT (site TACTAGGCTAC)", "recombinant UMI read abundance (log10)": 0.0272}
{"sequence": "TCCTAGGCATGGACCGGTTTTCCCGGTAATCCGTATTTGGT (site TCCTAGGCTAC)", "recombinant UMI read abundance (log10)": 0.0125}
{"sequence": "TCCTAGGCATGGACCGGTTTTCCCGGTAATCCGTATTTGGT (site TGCTAGGCTAC)", "recombinant UMI read abundance (log10)": 0.0178}
{"sequence": "TCCTAGGCATGGACCGGTTTTCCCGGTAATCCGTATTTGGT (site TTCTAGGCTAC)", "recombinant UMI read abundance (log10)": 0.0363}
{"sequence": "TCCTGCCCATGGACCGGTTTTCCCGGTAATCCGTATTTGCT (site TCCTGCCCTAG)", "recombinant UMI read abundance (log10)": 0}
{"sequence": "TCCTGGCCATGGACCGGTTTTCCCGGTAATCCGTATTTGTG (site TCCTGGCCTCA)", "recombinant UMI read abundance (log10)": 0.00405}
{"sequence": "TCCTGTTCATGGACCGGTTTTCCCGGTAATCCGTATTTGTC (site TCCTGTTCTGA)", "recombinant UMI read abundance (log10)": 0}
{"sequence": "TCCTTCTCATGGACCGGTTTTCCCGGTAATCCGTATTTGGG (site ACCTTCTCTCC)", "recombinant UMI read abundance (log10)": 0.0101}
{"sequence": "TCCTTCTCATGGACCGGTTTTCCCGGTAATCCGTATTTGGG (site CCCTTCTCTCC)", "recombinant UMI read abundance (log10)": 0.00366}
{"sequence": "TCCTTCTCATGGACCGGTTTTCCCGGTAATCCGTATTTGGG (site GCCTTCTCTCC)", "recombinant UMI read abundance (log10)": 0.104}
{"sequence": "TCCTTCTCATGGACCGGTTTTCCCGGTAATCCGTATTTGGG (site TCCTTCTCTCC)", "recombinant UMI read abundance (log10)": 0.0162}
{"sequence": "TCCTTTACATGGACCGGTTTTCCCGGTAATCCGTATTTGTT (site TCCTTTACTAA)", "recombinant UMI read abundance (log10)": 0.0163}
{"sequence": "TCGAACGCATGGACCGGTTTTCCCGGTAATCCGTATTTGCG (site TCGAACGCTCG)", "recombinant UMI read abundance (log10)": 0.00434}
{"sequence": "TCGAAGACATGGACCGGTTTTCCCGGTAATCCGTATTTGCA (site AGGAAGACTTG)", "recombinant UMI read abundance (log10)": 0.13}
{"sequence": "TCGAAGACATGGACCGGTTTTCCCGGTAATCCGTATTTGCA (site TCGAAGACTTG)", "recombinant UMI read abundance (log10)": 1.88}
{"sequence": "TCGAATACATGGACCGGTTTTCCCGGTAATCCGTATTTGCA (site TAGAATACTTG)", "recombinant UMI read abundance (log10)": 0.211}
{"sequence": "TCGAATACATGGACCGGTTTTCCCGGTAATCCGTATTTGCA (site TCGAATACTTG)", "recombinant UMI read abundance (log10)": 0}
{"sequence": "TCGAATACATGGACCGGTTTTCCCGGTAATCCGTATTTGCA (site TGGAATACTTG)", "recombinant UMI read abundance (log10)": 0.0214}
{"sequence": "TCGAATACATGGACCGGTTTTCCCGGTAATCCGTATTTGCA (site TTGAATACTTG)", "recombinant UMI read abundance (log10)": 0}
{"sequence": "TCGAATCCATGGACCGGTTTTCCCGGTAATCCGTATTTGAG (site TCGAATCCTCT)", "recombinant UMI read abundance (log10)": 0.516}
{"sequence": "TCGACACCATGGACCGGTTTTCCCGGTAATCCGTATTTGGA (site TCGACACCTTC)", "recombinant UMI read abundance (log10)": 0.0336}
{"sequence": "TCGACTTCATGGACCGGTTTTCCCGGTAATCCGTATTTGTG (site TCGACTTCTCA)", "recombinant UMI read abundance (log10)": 0}
{"sequence": "TCGATTACATGGACCGGTTTTCCCGGTAATCCGTATTTGGA (site TCGATTACTTC)", "recombinant UMI read abundance (log10)": 0.277}
{"sequence": "TCGCACACATGGACCGGTTTTCCCGGTAATCCGTATTTGCG (site TCGCACACTCG)", "recombinant UMI read abundance (log10)": 0.00409}
{"sequence": "TCGCCTACATGGACCGGTTTTCCCGGTAATCCGTATTTGTG (site TCGCCTACTCA)", "recombinant UMI read abundance (log10)": 0.00919}
{"sequence": "TCGGCTACATGGACCGGTTTTCCCGGTAATCCGTATTTGCC (site TCGGCTACTGG)", "recombinant UMI read abundance (log10)": 0}
{"sequence": "TCGGGCGCATGGACCGGTTTTCCCGGTAATCCGTATTTGTC (site TCGGGCGCTGA)", "recombinant UMI read abundance (log10)": 2.19}
{"sequence": "TCGGGTGCATGGACCGGTTTTCCCGGTAATCCGTATTTGGA (site TCGGGTGCTTC)", "recombinant UMI read abundance (log10)": 0.157}
{"sequence": "TCGGTTACATGGACCGGTTTTCCCGGTAATCCGTATTTGTT (site TCGGTTACTAA)", "recombinant UMI read abundance (log10)": 0.835}
{"sequence": "TCGTACTCATGGACCGGTTTTCCCGGTAATCCGTATTTGCA (site TCATACTCTTG)", "recombinant UMI read abundance (log10)": 2.44}
{"sequence": "TCGTACTCATGGACCGGTTTTCCCGGTAATCCGTATTTGCA (site TCCTACTCTTG)", "recombinant UMI read abundance (log10)": 2.28}
{"sequence": "TCGTACTCATGGACCGGTTTTCCCGGTAATCCGTATTTGCA (site TCGTACTCTTG)", "recombinant UMI read abundance (log10)": 2.38}
{"sequence": "TCGTACTCATGGACCGGTTTTCCCGGTAATCCGTATTTGCA (site TCTTACTCTTG)", "recombinant UMI read abundance (log10)": 2.29}
{"sequence": "TCGTCATCATGGACCGGTTTTCCCGGTAATCCGTATTTGAC (site TCGTCATCTGT)", "recombinant UMI read abundance (log10)": 0}
{"sequence": "TCGTCGCCATGGACCGGTTTTCCCGGTAATCCGTATTTGCA (site TCGTCGCCTTG)", "recombinant UMI read abundance (log10)": 0.00504}
{"sequence": "TCGTTAGCATGGACCGGTTTTCCCGGTAATCCGTATTTGTG (site ACGTTAGCTCA)", "recombinant UMI read abundance (log10)": 0.00928}
{"sequence": "TCGTTAGCATGGACCGGTTTTCCCGGTAATCCGTATTTGTG (site CCGTTAGCTCA)", "recombinant UMI read abundance (log10)": 0}
{"sequence": "TCGTTAGCATGGACCGGTTTTCCCGGTAATCCGTATTTGTG (site GCGTTAGCTCA)", "recombinant UMI read abundance (log10)": 0.109}
{"sequence": "TCGTTAGCATGGACCGGTTTTCCCGGTAATCCGTATTTGTG (site TCGTTAGCTCA)", "recombinant UMI read abundance (log10)": 0.255}
{"sequence": "TCGTTGTCATGGACCGGTTTTCCCGGTAATCCGTATTTGAA (site TCGTTGTCTTT)", "recombinant UMI read abundance (log10)": 0.876}
{"sequence": "TCGTTGTCATGGACCGGTTTTCCCGGTAATCCGTATTTGTC (site TCGTTGTCTGA)", "recombinant UMI read abundance (log10)": 0.41}
{"sequence": "TCGTTTACATGGACCGGTTTTCCCGGTAATCCGTATTTGCT (site ACGTTTACTAG)", "recombinant UMI read abundance (log10)": 0}
{"sequence": "TCGTTTACATGGACCGGTTTTCCCGGTAATCCGTATTTGCT (site CCGTTTACTAG)", "recombinant UMI read abundance (log10)": 0}
{"sequence": "TCGTTTACATGGACCGGTTTTCCCGGTAATCCGTATTTGCT (site GCGTTTACTAG)", "recombinant UMI read abundance (log10)": 0}
{"sequence": "TCGTTTACATGGACCGGTTTTCCCGGTAATCCGTATTTGCT (site TCGTTTACTAG)", "recombinant UMI read abundance (log10)": 1.68}
{"sequence": "TCTAACACATGGACCGGTTTTCCCGGTAATCCGTATTTGTC (site TCTAACACTGA)", "recombinant UMI read abundance (log10)": 0}
{"sequence": "TCTAATACATGGACCGGTTTTCCCGGTAATCCGTATTTGGC (site ACTAATACTGC)", "recombinant UMI read abundance (log10)": 0}
{"sequence": "TCTAATACATGGACCGGTTTTCCCGGTAATCCGTATTTGGC (site CCTAATACTGC)", "recombinant UMI read abundance (log10)": 0}
{"sequence": "TCTAATACATGGACCGGTTTTCCCGGTAATCCGTATTTGGC (site GCTAATACTGC)", "recombinant UMI read abundance (log10)": 0}
{"sequence": "TCTAATACATGGACCGGTTTTCCCGGTAATCCGTATTTGGC (site TCTAATACTGC)", "recombinant UMI read abundance (log10)": 0}
{"sequence": "TCTAATACATGGACCGGTTTTCCCGGTAATCCGTATTTGGT (site TCTAATACTAC)", "recombinant UMI read abundance (log10)": 0.0331}
{"sequence": "TCTAATTCATGGACCGGTTTTCCCGGTAATCCGTATTTGCC (site TCAAATTCTGG)", "recombinant UMI read abundance (log10)": 0}
{"sequence": "TCTAATTCATGGACCGGTTTTCCCGGTAATCCGTATTTGCC (site TCCAATTCTGG)", "recombinant UMI read abundance (log10)": 0}
{"sequence": "TCTAATTCATGGACCGGTTTTCCCGGTAATCCGTATTTGCC (site TCGAATTCTGG)", "recombinant UMI read abundance (log10)": 0}
{"sequence": "TCTAATTCATGGACCGGTTTTCCCGGTAATCCGTATTTGCC (site TCTAATTCTGG)", "recombinant UMI read abundance (log10)": 0}
{"sequence": "TCTACCGCATGGACCGGTTTTCCCGGTAATCCGTATTTGCG (site TCAACCGCTCG)", "recombinant UMI read abundance (log10)": 0.00715}
{"sequence": "TCTACCGCATGGACCGGTTTTCCCGGTAATCCGTATTTGCG (site TCCACCGCTCG)", "recombinant UMI read abundance (log10)": 0.0035}
{"sequence": "TCTACCGCATGGACCGGTTTTCCCGGTAATCCGTATTTGCG (site TCGACCGCTCG)", "recombinant UMI read abundance (log10)": 0.0889}
{"sequence": "TCTACCGCATGGACCGGTTTTCCCGGTAATCCGTATTTGCG (site TCTACCGCTCG)", "recombinant UMI read abundance (log10)": 0.0133}
{"sequence": "TCTAGAACATGGACCGGTTTTCCCGGTAATCCGTATTTGTC (site TCTAGAACTGA)", "recombinant UMI read abundance (log10)": 0}
{"sequence": "TCTAGGCCATGGACCGGTTTTCCCGGTAATCCGTATTTGGA (site TCTAGGCCTTC)", "recombinant UMI read abundance (log10)": 0.0125}
{"sequence": "TCTAGTGCATGGACCGGTTTTCCCGGTAATCCGTATTTGGT (site ACTAGTGCTAC)", "recombinant UMI read abundance (log10)": 0.0111}
{"sequence": "TCTAGTGCATGGACCGGTTTTCCCGGTAATCCGTATTTGGT (site CCTAGTGCTAC)", "recombinant UMI read abundance (log10)": 0.229}
{"sequence": "TCTAGTGCATGGACCGGTTTTCCCGGTAATCCGTATTTGGT (site GCTAGTGCTAC)", "recombinant UMI read abundance (log10)": 0}
{"sequence": "TCTAGTGCATGGACCGGTTTTCCCGGTAATCCGTATTTGGT (site TCTAGTGCTAC)", "recombinant UMI read abundance (log10)": 0.0256}
{"sequence": "TCTATAACATGGACCGGTTTTCCCGGTAATCCGTATTTGGG (site TCTATAACTCC)", "recombinant UMI read abundance (log10)": 0.0262}
